Assay results taken from US11903983B2, “Composition comprising new Lactobacillus salivarius strains and method for the prevention and treatment of otitis and upper respiratory infections” (priority 2018, dated 2024).
Values after ≈ are worked out from the molar mass of the structure shown.

Tested on: L. salivarius PS7
Test: Antibiogram: MIC by VetMIC microdilution and E-test
Format: cell-based, Lactobacillus salivarius
Settings: for MIC: Ligilactobacillus salivarius, PS7, read-out: MICs (L. salivarius PS7); for MICs (L. salivarius PS7): antibiotic against L. salivarius PS7
Method: The suspension was further adjusted to 3×10^5 CFU/ml with LSM, and 100 μl were inoculated to wells of microtiter VetMIC plates for lactic acid bacteria (National Veterinary Institute of Sweden, Uppsala, Sweden). The plates were incubated at 37° C. for 48 h and the MIC was defined as the lowest concentration at which no growth was observed.
Parallel, minimum inhibitory concentrations (MICs) were also determined by the E-test (AB BIODISK, Solna, Sweden) following the instructions of the manufacturer. Briefly, after overnight incubation, agar cultures were checked for purity. For inoculums preparation, individual colonies were suspended in a sterile glass culture tube containing 5 ml sterile saline (0.85% NaCl solution) until a density corresponding to a McFarland (McF) standard of 0.5 was obtained. A sterile cotton swab was dipped into the standardized inoculum and used to inoculate an agar plate. Inoculated plates were allowed to dry for approximately 15 min before application of the E-test strips with preformed antimicrobial gradients. […] For bacteriostatic agents (e.g., tetracycline, erythromycin and clindamycin), the MIC was read at the point where growth was inhibited by 80% (i.e., the first point of significant inhibition as judged by the naked eye).
Results from the different antibiotic susceptibility tests were interpreted according to the cut-off levels proposed by the European Food Safety Authority (EFSA, 2012).

| Molecule | MIC | MICs (L. salivarius PS7) | antibiotic susceptibility of L. salivarius PS7 according to EFSA cut-off levels |
| --- | --- | --- | --- |
| CCC[C@@H]1C[C@@H](C(=O)N[C@@H]([C@H]2O[C@H](SC)[C@H](O)[C@@H](O)[C@H]2O)[C@H](C)Cl)N(C)C1 [Clindamycin] | 0.5 µg/mL (≈ 1.18 µM) | – | – |
| NC[C@H]1O[C@H](O[C@H]2[C@H](O)[C@@H](O[C@H]3O[C@H](CO)[C@@H](O)[C@H](N)[C@H]3O)[C@H](N)C[C@@H]2N)[C@H](O)[C@@H](O)[C@@H]1O [Kanamycin] | 128 µg/mL (≈ 264 µM) | – | – |
| Penicillin | – | 0.25 µg/mL | – |
| Gentamicin | – | 0.12 µg/mL | – |
| CN[C@H](CC(C)C)C(=O)N[C@H]1C(=O)N[C@@H](CC(N)=O)C(=O)N[C@H]2C(=O)N[C@H]3C(=O)N[C@H](C(=O)N[C@H](C(=O)O)c4cc(O)cc(O)c4-c4cc3ccc4O)[C@H](O)c3ccc(c(Cl)c3)Oc3cc2cc(c3O[C@@H]2O[C@H](CO)[C@@H](O)[C@H](O)[C@H]2O[C@H]2C[C@](C)(N)[C@H](O)[C@H](C)O2)Oc2ccc(cc2Cl)[C@H]1O [Vancomycin] | > 128 µg/mL | – | intrinsically resistant |
| CC(=O)NC[C@H]1CN(c2ccc(N3CCOCC3)c(F)c2)C(=O)O1 [Linezolid] | 1 µg/mL (≈ 2.96 µM) | – | – |
| [H]/N=C(/N)N[C@H]1[C@H](O)[C@@H](O)[C@H](O[C@@H]2O[C@@H](C)[C@](O)(C=O)[C@H]2O[C@@H]2O[C@@H](CO)[C@H](O)[C@@H](O)[C@@H]2NC)[C@@H](N/C(N)=N\[H])[C@@H]1O [Streptomycin] | 32 µg/mL (≈ 55 µM) | – | – |
| CN(C)[C@@H]1C(=O)C(C(N)=O)=C(O)[C@@]2(O)C(=O)C3=C(O)c4c(O)cccc4[C@@](C)(O)[C@H]3C[C@@H]12 [Tetracyclin] | – | 2 µg/mL | – |
| CC[C@H]1OC(=O)[C@H](C)[C@@H](O[C@H]2C[C@@](C)(OC)[C@@H](O)[C@H](C)O2)[C@H](C)[C@@H](O[C@@H]2O[C@H](C)C[C@H](N(C)C)[C@H]2O)[C@](C)(O)C[C@@H](C)C(=O)[C@H](C)[C@@H](O)[C@]1(C)O [Erythromycin] | 0.12 µg/mL (≈ 0.164 µM) | – | – |
| CC1(C)S[C@@H]2[C@H](NC(=O)[C@H](N)c3ccccc3)C(=O)N2[C@H]1C(=O)O [Ampicillin] | 0.5 µg/mL (≈ 1.43 µM) | – | – |
| O=C(N[C@H](CO)[C@H](O)c1ccc([N+](=O)[O-])cc1)C(Cl)Cl [Chloramphenicol] | 2 µg/mL (≈ 6.19 µM) | – | – |
